Reference: PubChem BioAssay (NCI)
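Values below derive from 48-hour exposures of cells grown in 96-well plates, with endpoints linearly interpolated between the two concentrations bracketing the appropriate inhibition level. TGI marks complete inhibition of growth.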

Key:
Assay in all cases: inhibition of tumour cell growth, NCI panel, 48 h
[1] = system: SW-620 colon
[2] = system: K-562 leukemia
[3] = system: OVCAR-4 ovarian
[4] = system: KM12 colon
[5] = system: LOX IMVI melanoma
[6] = system: HS 578T breast
[7] = system: OVCAR-5 ovarian
[8] = system: NCI-H522 lung
[9] = system: SF-295 CNS
[10] = system: RXF 393 renal
[11] = system: NCI-H23 lung
[12] = system: EKVX NSCLC
[13] = system: U251 CNS
[14] = system: SN12C renal
[15] = system: HCC-2998 colon
[16] = system: TK-10 renal
[17] = system: MCF7 breast
[18] = system: M14 melanoma
[19] = system: SF-268 CNS
[20] = system: MDA-N
[21] = system: HCT-15 colon
[22] = system: HOP-62 NSCLC
[23] = system: DU-145 prostate
[24] = system: RPMI-8226 leukemia
[25] = system: BT-549 breast
[26] = system: UACC-257 melanoma
[27] = system: SNB-19 CNS
[28] = system: MDA-MB-231 breast
[29] = system: HCT-116 colon
[30] = system: CCRF-CEM leukemia
[31] = system: A498 renal
[32] = system: OVCAR-3 ovarian
[33] = system: HOP-92 NSCLC
[34] = system: PC-3 prostate
[35] = system: HT29 colon
[36] = system: NCI/ADR-RES ovarian
[37] = system: SK-MEL-28 melanoma
[38] = system: MOLT-4 leukemia
[39] = system: A549 NSCLC
[40] = system: COLO 205 colon
[41] = system: IGROV1 ovarian
[42] = system: CAKI-1 renal
[43] = system: OVCAR-8 ovarian
[44] = system: UO-31 renal
[45] = system: UACC-62 melanoma
[46] = system: 786-0 renal
[47] = system: MDA-MB-435
[48] = system: ACHN renal
[49] = system: NCI-H226 lung
[50] = system: T-47D breast
[51] = system: HL-60(TB) leukemia
[52] = system: SK-OV-3 ovarian
[53] = system: NCI-H460 lung
[54] = system: SK-MEL-5 melanoma
[55] = system: MALME-3M melanoma
[56] = system: SNB-75 CNS
[57] = system: SK-MEL-2 melanoma
[58] = system: SF-539 CNS

Cc1nnc(N2C(=O)C(=Cc3ccc(Cl)cc3)N=C2c2ccc(Cl)cc2)nc1/C=C\c1ccc(N(C)C)cc1
TGI [1]: > 100 µM
TGI [2]: > 100 µM
TGI [3]: > 100 µM
TGI [4]: > 100 µM
TGI [5]: > 100 µM
TGI [6]: > 100 µM
TGI [7]: > 100 µM
TGI [8]: > 100 µM
TGI [9]: > 100 µM
TGI [10]: > 100 µM
TGI [11]: > 100 µM
TGI [12]: > 100 µM
TGI [13]: > 100 µM
TGI [14]: > 100 µM
TGI [15]: > 100 µM
TGI [16]: > 100 µM
TGI [17]: > 100 µM
TGI [18]: > 100 µM
TGI [19]: > 100 µM
TGI [20]: > 100 µM
TGI [21]: > 100 µM
TGI [22]: > 100 µM
TGI [23]: > 100 µM
TGI [24]: > 100 µM
TGI [25]: > 100 µM
TGI [26]: > 100 µM
TGI [27]: > 100 µM
TGI [28]: > 100 µM
TGI [29]: > 100 µM
TGI [30]: > 100 µM
TGI [31]: > 100 µM
TGI [32]: > 100 µM
TGI [33]: > 100 µM
TGI [34]: > 100 µM
TGI [35]: > 100 µM
TGI [36]: > 100 µM
TGI [37]: > 100 µM
TGI [38]: > 100 µM
TGI [39]: > 100 µM
TGI [40]: > 100 µM
TGI [41]: > 100 µM
TGI [42]: > 100 µM
TGI [43]: > 100 µM
TGI [44]: > 100 µM
TGI [45]: > 100 µM
TGI [46]: > 100 µM
TGI [47]: > 100 µM
TGI [48]: > 100 µM
TGI [49]: > 100 µM
TGI [50]: > 100 µM
TGI [51]: > 100 µM
TGI [52]: > 100 µM
TGI [53]: > 100 µM
TGI [54]: > 100 µM
TGI [55]: > 100 µM
TGI [56]: > 100 µM
TGI [57]: > 100 µM

CC(C)C(C)C(O)C(O)C(C)C1CCC2C3COC(=O)C4CC(O)C(O)CC4(C)C3CCC12C (stereo not given)
TGI [58]: > 100 µM
TGI [1]: > 100 µM
TGI [2]: > 100 µM
TGI [3]: > 100 µM
TGI [4]: > 100 µM
TGI [5]: > 100 µM
TGI [6]: > 100 µM
TGI [7]: > 100 µM
TGI [8]: > 100 µM
TGI [9]: > 100 µM
TGI [10]: 67.4 µM
TGI [11]: > 100 µM
TGI [12]: > 100 µM
TGI [13]: > 100 µM
TGI [14]: > 100 µM
TGI [15]: > 100 µM
TGI [16]: > 100 µM
TGI [17]: > 100 µM
TGI [18]: > 100 µM
TGI [19]: > 100 µM
TGI [20]: > 100 µM
TGI [21]: > 100 µM
TGI [23]: > 100 µM
TGI [25]: > 100 µM
TGI [26]: > 100 µM
TGI [27]: > 100 µM
TGI [28]: > 100 µM
TGI [29]: > 100 µM
TGI [30]: 67.5 µM
TGI [31]: > 100 µM
TGI [33]: > 100 µM
TGI [34]: > 100 µM
TGI [35]: > 100 µM
TGI [36]: > 100 µM
TGI [37]: > 100 µM
TGI [38]: 59.1 µM
TGI [39]: > 100 µM
TGI [40]: > 100 µM
TGI [41]: > 100 µM
TGI [42]: 26.3 µM
TGI [43]: > 100 µM
TGI [44]: > 100 µM
TGI [45]: > 100 µM
TGI [46]: > 100 µM
TGI [47]: > 100 µM
TGI [48]: > 100 µM
TGI [49]: > 100 µM
TGI [50]: > 100 µM
TGI [52]: > 100 µM
TGI [53]: > 100 µM
TGI [54]: > 100 µM
TGI [55]: > 100 µM
TGI [57]: > 100 µM
